From ChEMBL document CHEMBL4002630, “The design and synthesis of novel spirocyclic heterocyclic sulfone ROMK inhibitors as diuretics” (Bioorg Med Chem Lett, 2017)

Legend:
Homo sapiens [1] = species on record: Homo sapiens; assay: Selectivity ratio of IC50 for human ERG expressed in HEK293 cells to IC50 for human ROMK expressed in HEK293 cells; format: cell-based
[2] = target: T1, ATP-sensitive inward rectifier potassium channel 1 (Homo sapiens, UniProt P48048); assay: Inhibition of human ROMK expressed in HEK293 cells after 30 mins by thallium flux assay; format: cell-based
T1 sequence (P48048 whole entry): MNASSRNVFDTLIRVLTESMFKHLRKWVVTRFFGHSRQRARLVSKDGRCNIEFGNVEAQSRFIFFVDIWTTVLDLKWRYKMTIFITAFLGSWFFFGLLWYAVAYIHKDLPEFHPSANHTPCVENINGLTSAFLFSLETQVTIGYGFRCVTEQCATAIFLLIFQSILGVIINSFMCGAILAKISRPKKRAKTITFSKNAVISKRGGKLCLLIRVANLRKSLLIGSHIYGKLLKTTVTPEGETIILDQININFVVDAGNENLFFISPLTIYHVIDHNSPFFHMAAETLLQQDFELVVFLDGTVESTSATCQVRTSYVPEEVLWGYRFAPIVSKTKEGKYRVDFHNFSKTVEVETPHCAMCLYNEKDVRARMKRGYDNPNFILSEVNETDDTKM

[3] = target: T2, Voltage-gated inwardly rectifying potassium channel KCNH2 (Homo sapiens, UniProt Q12809)
T2 sequence (Q12809 whole entry): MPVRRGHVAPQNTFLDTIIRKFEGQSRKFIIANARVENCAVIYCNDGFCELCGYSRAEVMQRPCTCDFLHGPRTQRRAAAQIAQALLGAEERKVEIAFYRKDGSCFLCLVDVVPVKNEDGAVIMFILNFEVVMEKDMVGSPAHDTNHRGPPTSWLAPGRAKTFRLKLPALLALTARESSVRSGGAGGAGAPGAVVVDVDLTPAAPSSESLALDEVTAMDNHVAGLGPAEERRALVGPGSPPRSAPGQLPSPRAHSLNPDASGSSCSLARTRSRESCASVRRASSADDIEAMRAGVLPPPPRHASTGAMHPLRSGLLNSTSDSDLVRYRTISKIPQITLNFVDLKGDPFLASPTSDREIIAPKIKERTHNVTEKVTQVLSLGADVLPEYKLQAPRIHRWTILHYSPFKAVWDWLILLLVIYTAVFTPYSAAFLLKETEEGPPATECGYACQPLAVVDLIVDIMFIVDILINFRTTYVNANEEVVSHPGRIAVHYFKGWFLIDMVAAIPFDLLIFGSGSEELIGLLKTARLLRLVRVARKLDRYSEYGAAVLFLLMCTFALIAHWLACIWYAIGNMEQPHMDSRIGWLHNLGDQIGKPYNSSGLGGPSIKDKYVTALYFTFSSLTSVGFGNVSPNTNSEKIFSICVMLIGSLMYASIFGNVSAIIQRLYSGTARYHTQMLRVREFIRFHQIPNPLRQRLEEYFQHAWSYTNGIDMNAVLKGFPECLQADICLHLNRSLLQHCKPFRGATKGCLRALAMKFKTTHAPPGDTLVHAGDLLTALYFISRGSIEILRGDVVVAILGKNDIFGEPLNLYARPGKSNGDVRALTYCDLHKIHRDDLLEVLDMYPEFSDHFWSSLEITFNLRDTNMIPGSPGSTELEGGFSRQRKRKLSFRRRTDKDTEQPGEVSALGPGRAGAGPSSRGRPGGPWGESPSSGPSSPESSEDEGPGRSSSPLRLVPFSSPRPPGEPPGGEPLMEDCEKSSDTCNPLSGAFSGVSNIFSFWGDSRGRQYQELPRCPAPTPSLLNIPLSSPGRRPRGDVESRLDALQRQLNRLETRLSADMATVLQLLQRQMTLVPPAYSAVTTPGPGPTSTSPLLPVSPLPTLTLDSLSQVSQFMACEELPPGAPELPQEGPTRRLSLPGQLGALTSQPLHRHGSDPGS

Homo sapiens [4] = species on record: Homo sapiens; assay: Selectivity ratio of IC50 for human ERG to IC50 for human ROMK expressed in CHO cells by electrophysiology method; format: cell-based
[5] = target: T2, Voltage-gated inwardly rectifying potassium channel KCNH2; assay: Inhibition of human ERG by electrophysiology method
Rattus norvegicus [6] = assay: Antihypertensive activity in rat spontaneous hypertensive model assessed as change in systolic blood pressure at 3 mg/kg, po measured after 3 days; format: functional
Rattus norvegicus [7] = species on record: Rattus norvegicus; conditions: in vivo, po, 1 mg/kg
in vivo [8] = conditions: rat, po, 1 mg/kg
[9] = target: T1, ATP-sensitive inward rectifier potassium channel 1; assay: Inhibition of human ROMK expressed in CHO cells by electrophysiology method; format: cell-based
Rattus norvegicus [10] = species on record: Rattus norvegicus; conditions: in vivo, iv, 0.5 mg/kg
[11] = target: T3, ATP-sensitive inward rectifier potassium channel 1 (Rattus norvegicus, UniProt P35560); assay: Inhibition of rat ROMK expressed in HEK293 cells after 30 mins by thallium flux assay; format: cell-based
T3 sequence (P35560 whole entry): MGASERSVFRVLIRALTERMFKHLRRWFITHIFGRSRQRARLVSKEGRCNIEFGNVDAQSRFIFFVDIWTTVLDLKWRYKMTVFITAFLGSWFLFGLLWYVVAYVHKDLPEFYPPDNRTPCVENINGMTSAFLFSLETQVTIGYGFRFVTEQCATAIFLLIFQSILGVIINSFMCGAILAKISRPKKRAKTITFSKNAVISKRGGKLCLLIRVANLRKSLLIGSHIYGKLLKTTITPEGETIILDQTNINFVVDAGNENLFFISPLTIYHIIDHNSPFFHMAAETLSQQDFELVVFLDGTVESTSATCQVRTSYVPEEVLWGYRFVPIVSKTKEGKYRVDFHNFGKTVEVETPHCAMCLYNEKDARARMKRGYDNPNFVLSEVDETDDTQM

in vivo [12] = conditions: rat, iv, 0.5 mg/kg
[13] = Drug uptake in plasma of rat spontaneous hypertensive model at 3 mg/kg, po measured after 3 days; format: ADME, organism-based; conditions: spontaneously hypertensive rat
in vivo [14] = conditions: rat
[15] = Drug excretion in urine of rat spontaneous hypertensive model at 3 mg/kg, po measured after 24 hrs; format: ADME, organism-based; conditions: spontaneously hypertensive rat, read-out: Drug excretion
[16] = Drug excretion in urine of rat spontaneous hypertensive model at 3 mg/kg, po measured after 4 hrs; format: ADME, organism-based; conditions: spontaneously hypertensive rat, read-out: Drug excretion
Canis familiaris = assay: AUC (0 to t) in dog at 0.5 mg/kg, iv; format: ADME, organism-based, Canis lupus familiaris; conditions: in vivo
[17] = Half life in dog at 0.5 mg/kg, iv; format: ADME, organism-based, Canis lupus familiaris; conditions: in vivo
[18] = Volume of distribution at steady state in dog at 0.5 mg/kg, iv; format: ADME, organism-based, Canis lupus familiaris; conditions: in vivo, read-out: Vdss
Rattus norvegicus [19] = assay: Antihypertensive activity in rat spontaneous hypertensive model assessed as change in systolic blood pressure at 25 mg/kg, po measured after 3 days; format: functional
[20] = Oral bioavailability in dog at 1 mg/kg; format: ADME, organism-based, Canis lupus familiaris; conditions: in vivo
Rhesus monkey = assay: AUC (0 to t) in rhesus monkey at 0.5 mg/kg, iv; format: ADME, organism-based, Macaca mulatta; conditions: in vivo
[21] = AUC (0 to t) in dog at 1 mg/kg, po; format: ADME, organism-based, Canis lupus familiaris; conditions: in vivo
[22] = Volume of distribution at steady state in rhesus monkey at 0.5 mg/kg, iv; format: ADME, organism-based, Macaca mulatta; conditions: in vivo, read-out: Vdss
[23] = Clearance in dog at 1 mg/kg, po or 0.5 mg/kg, iv; format: ADME, organism-based, Canis lupus familiaris; conditions: in vivo
[24] = Half life in dog at 1 mg/kg, po or 0.5 mg/kg, iv; format: ADME, organism-based, Canis lupus familiaris; conditions: in vivo
[25] = Half life in rhesus monkey at 0.5 mg/kg, iv; format: ADME, organism-based, Macaca mulatta; conditions: in vivo
[26] = Volume of distribution at steady state in dog at 1 mg/kg, po or 0.5 mg/kg, iv; format: ADME, organism-based, Canis lupus familiaris; conditions: in vivo, read-out: Vdss
in vivo [27] = conditions: rat, po, 1 mg/kg; remark: listed apart in the source

Row | SMILES | IC50 ([2]; read-out: IC50) [nM] | AUC/dose (Rattus norvegicus [7]) [µM·kg·h/mg] | bioavailability (in vivo [8]) [%] | clearance (Rattus norvegicus [10]) [mL/min/kg] | Vd (in vivo [12]) [L/kg] | half-life (in vivo [14]) [h] | Ratio IC50 (Homo sapiens [1]) | IC50 [3] [nM] | also measured
1 | Cc1c([C@@H](O)CN2CCC3(CC2)CC(=O)N(c2ccc(S(C)(=O)=O)cn2)C3)ccc2c1COC2=O |  | 0.5 | 48 | 34 | 4.3 | 2.1 | 328 | 17400 | Ratio IC50 (Homo sapiens [4]): 558; IC50 [5]: 24000 nM; Activity (Rattus norvegicus [6]): -15.5 mmHg; IC50 [9]: 43 nM; IC50 [11]: 40 nM; concentration at 72 h [13]: 220 nM
2 | Cc1c([C@@H](O)CN2CCC3(CC2)CCN(c2ccc(C#N)nc2)C3)ccc2c1COC2=O |  |  |  |  |  |  | 13 | 1200 | 
3 | Cc1c([C@@H](O)CN2CCC3(CC2)CCN(c2ccc(C(C)(C)O)nc2)C3)ccc2c1COC2=O |  |  |  |  |  |  |  | 29000 | IC50 ([2]; hek293): Not Active
4 | NS(=O)(=O)c1cc2c(cc1Cl)NCNS2(=O)=O [HYDROCHLOROTHIAZIDE] |  |  |  |  |  |  |  |  | Activity (Rattus norvegicus [19]): -10.5 mmHg
5 | Cc1c([C@@H](O)CN2CCC3(CC2)CC(=O)N(c2ccc(C#N)cn2)C3)ccc2c1COC2=O | 10 |  |  |  |  |  | 180 | 1800 | 
6 | Cc1c([C@@H](O)CN2CCC3(CC2)CC(=O)N(c2cncc(C#N)c2)C3)ccc2c1COC2=O | 10 |  |  |  |  |  | 180 | 1800 | 
7 | Cc1c([C@@H](O)CN2CCC3(CC2)CC(=O)N(c2cnc(S(C)(=O)=O)cn2)C3)ccc2c1COC2=O |  | 0.5 | 46 | 30 | 3.8 | 2.4 |  |  | Activity (Rattus norvegicus [6]): -16 mmHg; IC50 [9]: 34 nM; IC50 [11]: 60 nM; concentration at 72 h [13]: 232 nM
8 | Cc1c([C@@H](O)CN2CCC3(CC2)CC(=O)N(c2ccc(S(C)(=O)=O)nc2)C3)ccc2c1COC2=O |  |  |  |  |  |  |  | > 60000 | 
9 | Cc1c([C@@H](O)CN2CCC3(CC2)CCN(c2ccc(C#N)cn2)CC3)ccc2c1COC2=O | 47 |  |  |  |  |  |  |  | 
10 | Cc1nc(N2CCC3(CCN(C[C@H](O)c4ccc5c(c4C)COC5=O)CC3)C2)ccc1S(C)(=O)=O |  |  |  |  |  |  | 101 | 7900 | 
11 | Cc1c([C@@H](O)CN2CCC3(CC2)CCN(c2cnc(S(C)(=O)=O)cn2)C3)ccc2c1COC2=O |  | 0.4 | 37 | 37 | 5.6 | 2.1 | 202 | 8900 | bioavailability [20]: 67%; AUCt (Rhesus monkey): 0.61 µM·h; AUC(0-t) [21]: 0.75 µM·h; Vd [22]: 7 L/kg; Ratio IC50 (Homo sapiens [4]): 614; IC50 [5]: 22700 nM; clearance [23]: 42 mL/min/kg; half-life [24]: 8.6 h; half-life [25]: 1.8 h; Activity (Rattus norvegicus [6]): -19.9 mmHg; IC50 [9]: 37 nM; Vd [26]: 17.8 L/kg; IC50 [11]: 40 nM; concentration at 72 h [13]: 78 nM

The next lines start with results.

Row | IC50 ([2]; read-out: IC50) [nM] | AUC/dose (Rattus norvegicus [7]) [µM·kg·h/mg] | bioavailability (in vivo [8]) [%] | clearance (Rattus norvegicus [10]) [mL/min/kg] | Vd (in vivo [12]) [L/kg] | half-life (in vivo [14]) [h] | SMILES | Ratio IC50 (Homo sapiens [1]) | IC50 [3] [nM] | also measured
12 | 1000 |  |  |  |  |  | COc1ccc(N2CCC3(CCN(C[C@H](O)c4ccc5c(c4C)COC5=O)CC3)C2)cn1 | 303 | 3300 | 
13 | 226 | 0.7 | 96 | 23 | 2.8 | 2 | Cc1c([C@@H](O)CN2CCC3(CC2)CCN(c2ccc(S(C)(=O)=O)nc2)C3)ccc2c1COC2=O |  |  | concentration at 24 h [15]: 21200 nM; concentration at 4 h [16]: 26600 nM; Activity (Rattus norvegicus [6]): 0.1 mmHg; IC50 [9]: 50 nM; IC50 [11]: 240 nM; concentration at 72 h [13]: 390 nM
14 |  | 0.7 | 51 | 24 | 3.5 | 1.8 | Cc1c([C@@H](O)CN2CCC3(CC2)CCN(c2ccc(S(C)(=O)=O)cn2)C3)ccc2c1COC2=O |  |  | AUCt (Canis familiaris): 0.66 µM·h; half-life [17]: 1.7 h; Activity (Rattus norvegicus [6]): -20.3 mmHg; Vd [18]: 6.9 L/kg; IC50 [9]: 29 nM; IC50 [11]: 60 nM; concentration at 72 h [13]: 162 nM
15 | 6400 |  |  |  |  |  | Cc1c([C@@H](O)CN2CCC3(CC2)CCN(c2ccc([S+](C)[O-])nc2)C3)ccc2c1COC2=O (some centres undefined) |  |  | 
16 | 10 |  |  |  |  |  | Cc1c([C@@H](O)CN2CCC3(CC2)CCN(c2cncc(C#N)c2)C3)ccc2c1COC2=O |  |  | 
17 | 901 |  |  |  |  |  | CSc1ccc(N2CCC3(CCN(C[C@H](O)c4ccc5c(c4C)COC5=O)CC3)C2)cn1 |  |  | 
18 |  | 2 | 100 | 19.3 | 4.7 | 3 | Cc1c([C@@H](O)CN2CCC3(CC2)CCN(c2ccc(C#N)cn2)C3)ccc2c1COC2=O |  |  | fraction unbound (in vivo [27]): 0.27
